The numbers were not newly measured in patent US20190352602A1, “Methods and Compositions for Producing Germ Cells from Bone Marrow Derived Germline Stem Cells” (The General Hospital Corporation, priority 2004, published 2019), which cites them from elsewhere.

The test system of this data set is irradiated testicular tissue. The following applies: irradiated testicular tissue treated with S1P vs untreated tissues.

On to `CCCCCCCCCCCCC/C=C/[C@@H](O)[C@@H](N)COP(=O)(O)O` [S1P, Sphingosine-1-phosphate], for which the “numbers of primary spermatocytes and spermatogonia” value is “higher than untreated tissues”.
